Eight compounds from patent US8815863B2, “Compounds and therapeutic use thereof for protein kinase inhibition” (priority 2009, dated 2014) can be followed below.

≈ marks a conversion by molar mass, not a printed value. Entries after “also recorded” stand apart in the source; their conditions may differ. Read-outs that look alike come from different tables or passages of the source.

One series deals with T1, Chk2 (Homo sapiens, UniProt O96017).
T1 construct: purchased Upstate Biotechnology, Inc
T1 sequence (O96017 whole entry): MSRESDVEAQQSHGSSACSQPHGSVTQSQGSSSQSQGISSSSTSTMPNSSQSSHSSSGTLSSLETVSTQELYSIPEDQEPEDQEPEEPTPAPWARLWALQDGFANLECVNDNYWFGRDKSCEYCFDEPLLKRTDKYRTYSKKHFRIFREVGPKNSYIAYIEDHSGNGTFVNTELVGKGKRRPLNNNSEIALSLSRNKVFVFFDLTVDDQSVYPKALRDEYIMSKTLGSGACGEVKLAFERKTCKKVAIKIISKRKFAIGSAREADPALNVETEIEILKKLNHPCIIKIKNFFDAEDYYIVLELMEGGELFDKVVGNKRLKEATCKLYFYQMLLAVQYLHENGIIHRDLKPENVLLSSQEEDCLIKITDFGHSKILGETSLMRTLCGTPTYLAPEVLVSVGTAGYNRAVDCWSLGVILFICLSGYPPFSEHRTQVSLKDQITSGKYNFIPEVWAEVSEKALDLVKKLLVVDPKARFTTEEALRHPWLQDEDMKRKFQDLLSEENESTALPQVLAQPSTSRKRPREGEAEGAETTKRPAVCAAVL
As to the kind of experiment: Kinase activity measurement (K-LISA), Chk2. In kind it is biochemical. How it is done: (§1) The K-LISA™ Chk-1/Chk2 Activity Kit was supplied by Calibiochem (Cat. No. CBA020). Chk1 and Chk2 are from Upstate Biotechnology, Inc., and C-Met, HER2, EGFR are from Sigma. The Chk Peptide ([…]) (SEQ ID NO: 1) is from Cell Signaling, Inc., (Beverly, Mass., USA), and is stored at −70° C.
(§2) Kinase activity measurements: Enzyme, sample, Chk peptide, 5 μm ATP, and reaction buffer are added to the holes of biotinylated reaction plates. After the reaction is terminated with a stop buffer, the contents are discarded, replaced with 100 μl/hole of serine kinase antibody, to detect phosphorylation, and HRP-labeled goat-anti-rabbit IgG is added and incubated at room temperature for 1 hour. TMB reaction is conducted to determine substrate phosphorylation, with proper controls. OD450 is measured using VERSAmax (Sunnyvale, Calif., USA). The rate of inhibition is calculated as the follows: Rate of Inhibition (I)=(reaction hole OD Value−OD value of Enzyme-free control)/(OD value of negative control−OD value of enzyme-free control)×100%.

The subject of series [1] is Human colon cancer HT-29. The series is described as follows: In vitro anti-cancer cell activity, HT-29. It is filed as cell-based. The conditions noted are these: read-out: In vitro anti-cancer cell activities IC50, Human colon cancer HT-29. On the procedure: (§3) Some of the above compounds are tested in vitro or in vivo for their anti-cancer or anti-tumor activities, as well as cellular toxicity tests using SRB and MTT methods. The in vitro anti-cancer effects on human cancer HT-29 and mouse lung cancer cell 3LL are summarized in Table 1, and the effects on treating transplanted human colon cancer […] on nude mice are summarized in Table 2.

The next series has as its system Mouse Lung Cancer (3LL). As to the kind of experiment: In vitro anti-cancer cell activity, 3LL. In kind it is cell-based. Particulars: read-out: In vitro anti-cancer cell activities IC50, Mouse Lung Cancer (3LL). How it is done:
as §3

A further series deals with HT-29 Cell line. The series is described as follows: SRB cell multiplication test, sensitizing to cytotoxic antitumor drugs. Particulars: for sensitizing effects on cytotoxic antitumor drugs at the cellular level (in words): DDP, 5-fu, pemetrexed, oxaliplatin as named in the sentence.
The subject of series [2] is human low differentiation stomach cancer BGC-823. As to the kind of experiment: MTT cytotoxicity, BGC-823. In kind it is cell-based. How it is done:
(§4) Cell lines: human low differentiation stomach cancer BGC-823, human liver cancer QGY-7701, mouse lung cancer 3LL.
(§5) Experimental Details: The cyto-toxicity of XC608 is measured using the MTT method. Specifically: (1) cell culture: (i) frozen cells are removed from liquid nitrogen, rapidly thawed in 37° C. water bath; added to 6 ml DMEM culture medium in a 10 ml centrifuge tubes under sterile conditions, centrifuged at 1000 rpm for 5 min., with the supernatant removed. To the sediment is added 5-6 ml of DMEM medium, and re-suspended and cultured overnight at 37° C. (ii) The cells are centrifuged, washed twice with PBS, and treated with 3-4 drops of trypsin solution for about 3 minute at 37° C., and monitored under microscope to ensure that all cells are separated from the culture tube walls, and re-suspended in additional DMEM medium. […] (2) Test compound preparation: XC608 and XC302 are dissolved in PBS and serial diluted to 1000, 100, 10, 1, 0.1 and 0.01 μg/ml. (3) The prepared test compound solution is added to the holes of a 96-hole culture plate, 10 μl/hole, with two holes per concentration point, and 10 μl PBS as control. (4) Prepare a suspension of log phase cell in a DMEM medium containing 10% new born bovine serum with a cell concentration of 2×10^5/ml.
(§6) (5) add 90 μl cell suspension to each of the holes containing the test compound or control. […]

The test system of series [3] is human liver cancer QGY-7701. As to the kind of experiment: MTT cytotoxicity, QGY-7701. It is filed as cell-based. On the procedure:
as §4, §5, §6

The next series relates to mouse lung cancer 3LL. The series is described as follows: MTT cytotoxicity, 3LL. In kind it is cell-based. The conditions noted are these: 48 hours. On the procedure:
as §4, §5, §6

Another series addresses T2, Chk1 (Homo sapiens, UniProt O14757).
T2 construct: purchased Upstate Biotechnology, Inc
T2 sequence (O14757 1-476): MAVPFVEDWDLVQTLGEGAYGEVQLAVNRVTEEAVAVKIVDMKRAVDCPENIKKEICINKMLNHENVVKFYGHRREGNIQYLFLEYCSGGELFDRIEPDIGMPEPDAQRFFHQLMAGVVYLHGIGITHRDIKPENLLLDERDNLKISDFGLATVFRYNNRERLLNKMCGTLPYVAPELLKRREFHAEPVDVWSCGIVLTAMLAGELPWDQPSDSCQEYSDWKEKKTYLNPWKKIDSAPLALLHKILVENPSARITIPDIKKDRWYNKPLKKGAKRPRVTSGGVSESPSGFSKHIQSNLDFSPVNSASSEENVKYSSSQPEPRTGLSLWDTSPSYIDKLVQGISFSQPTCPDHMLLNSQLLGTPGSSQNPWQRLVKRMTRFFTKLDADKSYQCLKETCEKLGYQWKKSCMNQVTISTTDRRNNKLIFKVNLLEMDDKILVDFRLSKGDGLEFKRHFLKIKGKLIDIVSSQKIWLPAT
The series is described as follows: Kinase activity measurement (K-LISA), Chk1. It is filed as biochemical. On the procedure: The K-LISA™ Chk-1/Chk2 Activity Kit was supplied by Calibiochem (Cat. No. CBA020). Chk1 and Chk2 are from Upstate Biotechnology, Inc., and C-Met, HER2, EGFR are from Sigma.
as §2, with “After” for “Kinase activity measurements: Enzyme, sample, Chk peptide, 5 μm ATP, and reaction buffer are added to the holes of biotinylated reaction plates. After”

A further series concerns the target T3, c-Met (Homo sapiens, UniProt P08581).
T3 construct: purchased Sigma
The series is described as follows: Kinase activity measurement, c-Met. It is filed as biochemical. On the procedure:
as §1, §2

The next series deals with T4, HER2 (Homo sapiens, UniProt P04626).
T4 construct: purchased Sigma
T4 sequence (P04626 23-1255): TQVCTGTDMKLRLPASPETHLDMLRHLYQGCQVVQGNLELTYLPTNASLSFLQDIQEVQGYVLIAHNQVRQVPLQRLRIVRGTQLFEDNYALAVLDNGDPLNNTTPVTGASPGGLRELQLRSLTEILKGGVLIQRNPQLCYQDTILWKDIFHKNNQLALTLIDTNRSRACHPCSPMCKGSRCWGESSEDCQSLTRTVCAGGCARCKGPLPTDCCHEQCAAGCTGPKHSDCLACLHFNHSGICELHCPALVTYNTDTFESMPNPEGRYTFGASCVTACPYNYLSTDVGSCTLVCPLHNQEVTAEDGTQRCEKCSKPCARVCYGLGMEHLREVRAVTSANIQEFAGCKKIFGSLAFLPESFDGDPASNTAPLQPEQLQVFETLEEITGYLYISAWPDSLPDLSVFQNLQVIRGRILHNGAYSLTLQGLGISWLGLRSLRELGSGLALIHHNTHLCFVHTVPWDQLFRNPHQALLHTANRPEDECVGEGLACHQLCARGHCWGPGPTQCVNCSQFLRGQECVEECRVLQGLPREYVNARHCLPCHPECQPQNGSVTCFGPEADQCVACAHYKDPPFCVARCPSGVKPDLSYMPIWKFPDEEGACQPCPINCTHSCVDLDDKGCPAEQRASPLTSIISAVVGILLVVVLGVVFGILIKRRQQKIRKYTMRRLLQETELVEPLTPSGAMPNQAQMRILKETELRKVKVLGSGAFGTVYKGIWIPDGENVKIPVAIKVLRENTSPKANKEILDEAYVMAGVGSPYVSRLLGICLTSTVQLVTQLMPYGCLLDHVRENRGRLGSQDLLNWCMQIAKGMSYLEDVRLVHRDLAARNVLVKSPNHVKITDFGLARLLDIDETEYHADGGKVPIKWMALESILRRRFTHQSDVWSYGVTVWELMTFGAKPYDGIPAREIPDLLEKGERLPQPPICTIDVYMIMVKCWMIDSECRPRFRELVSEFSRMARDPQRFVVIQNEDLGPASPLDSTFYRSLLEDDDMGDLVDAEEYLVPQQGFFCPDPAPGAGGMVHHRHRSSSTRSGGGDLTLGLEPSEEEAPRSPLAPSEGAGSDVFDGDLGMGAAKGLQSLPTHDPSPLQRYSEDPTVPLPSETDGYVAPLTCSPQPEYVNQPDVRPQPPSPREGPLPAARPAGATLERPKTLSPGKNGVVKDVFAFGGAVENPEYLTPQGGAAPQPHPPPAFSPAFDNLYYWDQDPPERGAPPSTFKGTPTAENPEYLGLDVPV
As to the kind of experiment: Kinase activity measurement, HER2. In kind it is biochemical. How it is done:
as §1, §2

For the next series, the target named is T5, EGFR (Homo sapiens, UniProt P00533).
T5 construct: purchased Sigma
T5 sequence (P00533 25-1210): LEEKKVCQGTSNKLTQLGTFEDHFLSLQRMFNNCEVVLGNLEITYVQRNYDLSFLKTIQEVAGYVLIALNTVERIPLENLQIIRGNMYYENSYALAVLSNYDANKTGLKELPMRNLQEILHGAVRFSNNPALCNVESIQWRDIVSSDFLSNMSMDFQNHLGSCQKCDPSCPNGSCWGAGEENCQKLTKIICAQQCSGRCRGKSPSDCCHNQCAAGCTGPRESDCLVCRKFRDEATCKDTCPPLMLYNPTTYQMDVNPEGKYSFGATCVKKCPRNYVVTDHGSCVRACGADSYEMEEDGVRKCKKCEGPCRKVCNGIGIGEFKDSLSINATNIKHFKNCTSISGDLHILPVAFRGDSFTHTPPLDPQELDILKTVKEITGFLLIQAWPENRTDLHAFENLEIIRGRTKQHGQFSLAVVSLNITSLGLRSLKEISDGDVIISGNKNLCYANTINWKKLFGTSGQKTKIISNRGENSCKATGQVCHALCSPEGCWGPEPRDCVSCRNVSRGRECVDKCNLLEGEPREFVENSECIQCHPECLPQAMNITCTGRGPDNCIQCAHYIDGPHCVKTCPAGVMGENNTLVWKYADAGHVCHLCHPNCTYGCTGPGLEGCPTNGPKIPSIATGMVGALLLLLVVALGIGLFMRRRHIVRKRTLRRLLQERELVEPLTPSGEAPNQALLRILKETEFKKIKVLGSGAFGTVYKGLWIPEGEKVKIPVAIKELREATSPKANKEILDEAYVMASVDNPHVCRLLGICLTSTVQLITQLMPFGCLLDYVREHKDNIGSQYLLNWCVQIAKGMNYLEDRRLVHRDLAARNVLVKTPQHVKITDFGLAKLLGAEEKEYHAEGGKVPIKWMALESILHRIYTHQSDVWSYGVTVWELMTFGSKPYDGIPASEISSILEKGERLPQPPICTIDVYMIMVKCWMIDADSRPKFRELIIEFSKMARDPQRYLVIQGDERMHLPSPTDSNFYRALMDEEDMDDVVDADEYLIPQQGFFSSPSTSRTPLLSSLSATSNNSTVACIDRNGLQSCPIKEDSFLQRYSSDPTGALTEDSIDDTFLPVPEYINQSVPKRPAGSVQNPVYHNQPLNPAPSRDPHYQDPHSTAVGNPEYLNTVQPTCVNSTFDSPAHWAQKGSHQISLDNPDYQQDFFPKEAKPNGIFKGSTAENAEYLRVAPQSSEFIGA
As to the kind of experiment: Kinase activity measurement, EGFR. In kind it is biochemical. On the procedure: as §1, §2

A further series has as its system cdc2 phosphorylation. The series is described as follows: cdc2 phosphorylation induced by topoisomerase I. It is filed as cell-based. The text has this:
The effects of XC608 on the activity of protein kinases Chk1, Chk2 and c-met, and on cells entering cell cycle after drug-induced DNA damages and cellular reactions to DNA damages are studied.

Series [4] concerns human colon cancer HT-29. As to the kind of experiment: Nude mice transplanted with human colon cancer HT-29, XC608 with ADR and 5-fu. It is filed as in vivo. Particulars: HT-29 in nude mice. How it is done:
(§7) Nude mice transplanted with human colon cancer HT-29 and SW-620 and breast cancer MDA-MB-231 are tested using XC608 alone and in combination with ADR and 5-fu.

The subject of series [5] is human colon cancer SW-620. As to the kind of experiment: Nude mice transplanted with human colon cancer SW-620, XC608 with ADR and 5-fu. The conditions noted are these: SW-620 in nude mice. In kind it is in vivo. How it is done: as §7
Where [6] appears, read: Homo sapiens, HT-29, 72 h, read-out: IC50 Drug alone.
Where [7] appears, read: read-out: IC50 +10 nM AZD7762, HT-29, SRB, 72 hours, drug +10 nM AZD7762.
Where [8] appears, read: read-out: IC50 +100 nM AZD7762, HT-29, SRB, 72 hours, drug +100 nM AZD7762.
[9] abbreviates: read-out: IC50 +1 μM XC608, HT-29, SRB, 72 hours, drug +1 μM XC608.
The mark [10] stands for this setting: read-out: IC50 Drug alone, HT-29, SRB, 72 hours, drug alone.

T3 sequence (P08581 25-1390): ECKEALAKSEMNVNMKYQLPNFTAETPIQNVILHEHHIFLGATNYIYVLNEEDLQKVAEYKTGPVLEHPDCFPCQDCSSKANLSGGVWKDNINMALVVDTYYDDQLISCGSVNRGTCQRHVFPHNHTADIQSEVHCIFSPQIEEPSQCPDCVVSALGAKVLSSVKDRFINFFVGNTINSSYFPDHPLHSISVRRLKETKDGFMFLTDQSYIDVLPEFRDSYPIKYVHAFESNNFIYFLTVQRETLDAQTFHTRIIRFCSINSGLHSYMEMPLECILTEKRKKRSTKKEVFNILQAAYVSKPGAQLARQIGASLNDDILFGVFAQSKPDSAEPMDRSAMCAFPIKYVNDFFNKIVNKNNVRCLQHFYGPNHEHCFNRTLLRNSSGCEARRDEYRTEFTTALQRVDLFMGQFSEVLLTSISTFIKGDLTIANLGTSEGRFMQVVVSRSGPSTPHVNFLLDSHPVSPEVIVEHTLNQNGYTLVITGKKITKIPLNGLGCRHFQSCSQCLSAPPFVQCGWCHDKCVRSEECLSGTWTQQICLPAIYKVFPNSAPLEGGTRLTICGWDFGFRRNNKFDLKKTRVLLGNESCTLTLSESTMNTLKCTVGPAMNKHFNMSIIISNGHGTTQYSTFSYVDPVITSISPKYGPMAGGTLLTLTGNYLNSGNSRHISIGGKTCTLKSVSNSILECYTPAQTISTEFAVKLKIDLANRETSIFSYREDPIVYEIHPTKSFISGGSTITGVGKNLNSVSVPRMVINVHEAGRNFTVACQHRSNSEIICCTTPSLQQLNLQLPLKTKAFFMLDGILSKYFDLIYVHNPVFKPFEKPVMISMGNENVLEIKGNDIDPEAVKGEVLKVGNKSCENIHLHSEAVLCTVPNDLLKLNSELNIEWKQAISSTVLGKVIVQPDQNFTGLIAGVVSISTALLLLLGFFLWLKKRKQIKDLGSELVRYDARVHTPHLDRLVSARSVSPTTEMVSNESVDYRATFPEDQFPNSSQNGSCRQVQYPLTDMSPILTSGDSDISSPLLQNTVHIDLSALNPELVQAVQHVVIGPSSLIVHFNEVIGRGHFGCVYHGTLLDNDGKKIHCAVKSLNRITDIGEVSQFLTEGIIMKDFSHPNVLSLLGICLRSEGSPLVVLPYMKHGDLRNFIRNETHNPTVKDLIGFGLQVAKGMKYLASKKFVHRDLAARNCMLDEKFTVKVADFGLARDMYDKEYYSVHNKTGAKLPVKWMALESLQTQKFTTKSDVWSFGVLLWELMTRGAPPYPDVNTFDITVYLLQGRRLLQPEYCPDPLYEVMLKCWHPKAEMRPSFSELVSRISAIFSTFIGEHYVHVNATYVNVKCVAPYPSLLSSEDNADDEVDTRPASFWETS
Protocol for HT-29 Cell line: 3.2 Cell Lines: HT-29 Cell line (from ATCC).
Test Protocol: The effects of the compounds on cancer cell multiplication was measured using Sulforhodamine B (SRB). Specifically, log phase cells are inoculated into the holes of 96-hole culture plates, allowed to grow using the wall-adhesion procedure at 37° C. under 5% CO2. The test compound at 9 different concentrations were added, each concentration in duplicate, with appropriate saline water and cell-less controls. The cells are cultured for a further 72 hours, and fixed with TCA, and SRB is added for staining, and washed, and air-dried. After adding the Tris solution, the OD value was measured at 510 nm using a Spectra Max 190. The rate of inhibition is calculated according to the formula below: Rate of Inhibition=(ODcontrol−ODdrug)/ODcontrol×100%.
The IC50 is calculated based on the above ratios.

The term inhibition denotes how much of the control response was suppressed. On to `NC(=O)Nc1cc(-c2cccc(F)c2)sc1C(=O)N[C@H]1CCCNC1` [AZD7762], for which the inhibition at 0.1 µM on Chk2 (100 nM, read-out: Inhibition (%) (Mean ± SD) Chk2) turned out to be 99%.

By IC50 is commonly meant the concentration at which inhibition is half-maximal. For the compound `NC(=O)c1nnc(NC2CCCNC2)c2cc(-c3ccc(F)cc3)sc12` (centres unmarked) [Compound 1, 2-(4-fluorophenyl)-4-(3-piperidineamino)-thieno[2,3-d]pyridazine-7-carboxylic acid amide], the IC50 in the series on Human colon cancer HT-29 [1] came out at 1580 nM; with Mouse Lung Cancer (3LL) it was 1880 nM.

`O=c1[nH]cc(F)c(=O)[nH]1` [Compound 5-Fu, 5-fluorouracil]: the IC50 in the series on HT-29 Cell line (setting [6]) was determined as 1100 nM; with HT-29 Cell line (setting [7]), 1000 nM; in the series on HT-29 Cell line (setting [8]) it was 300 nM; with HT-29 Cell line (setting [9]), 200 nM.

Take `N.N.[Cl][Pt][Cl]` [DDP, cisplatin]: the IC50 in the series with HT-29 Cell line (setting [7]) turned out to be 5200 nM; in the series with HT-29 Cell line (setting [8]) it was 1300 nM; in the series with HT-29 Cell line (setting [9]), 1300 nM; in the series with HT-29 Cell line (setting [10]), 7700 nM.

For `CC(=O)O[C@H]1C(=O)[C@@]2(C)[C@H]([C@H](OC(=O)c3ccccc3)[C@]3(O)C[C@H](OC(=O)[C@H](O)[C@@H](NC(=O)c4ccccc4)c4ccccc4)C(C)=C1C3(C)C)[C@]1(OC(C)=O)CO[C@@H]1C[C@@H]2O` [Paclitaxel, paclitaxel], the IC50 in the series with HT-29 Cell line (setting [6]) was 3 nM; in the series on HT-29 Cell line (setting [8]) it was 5 nM; in the series on HT-29 Cell line (setting [9]), 2 nM.

On to `CS(=O)(=O)O.CS(=O)(=O)O.O.O.c1cnc2ccc(Nc3nc(NC4CC4)c4nc[nH]c4n3)cc2c1` [XC302], for which the “IC50, inhibition of cancer cell multiplication, BGC-823” value in series [2] (48 hours) came out at 4.77 µg/mL. For the same compound, the “IC50, inhibition of cancer cell multiplication, QGY-7701” value in series [3] (48 hours) stood at 6.69 µg/mL. Moreover, the “IC50, inhibition of cancer cell multiplication, 3LL” value with mouse lung cancer 3LL is 2.96 µg/mL.

With `NC(=O)c1nnc(N[C@H]2CCCNC2)c2cc(-c3cccc(F)c3)sc12` [XC608], the IC50 turned out to be 7.11 µg/mL (≈ 19.1 µM) in series [2] (Homo sapiens, BGC-823, 48 hours, read-out: IC50, inhibition of cancer cell multiplication, BGC-823); 5.14 µg/mL (≈ 13.8 µM) in [3] (Homo sapiens, QGY7701, 48 hours, read-out: IC50, inhibition of cancer cell multiplication, QGY-7701); 1.05 µg/mL (≈ 2.83 µM) with mouse lung cancer 3LL (Mus musculus, read-out: IC50, inhibition of cancer cell multiplication, 3LL). Besides, on Chk1, the “effect on activity of Chk1 (in words)” value is “clearly inhibits; also recorded: strongly inhibits”. Further, the “specificity for Chk1 (conclusion in words)” value on Chk1 is “specific Chk1 inhibitor”. Further, the inhibition at 1 µM was found to be 85 ± 11.1% at Chk1 (1 μM, read-out: Inhibition (%) (Mean ± SD) Chk1); 90 ± 13.2% on Chk2 (1 μM, read-out: Inhibition (%) (Mean ± SD) Chk2); 15.9% at c-Met (1 μM, read-out: Inhibition (%) (Mean ± SD) c-Met); 10.2 ± 1.3% on HER2 (1 μM, read-out: Inhibition (%) (Mean ± SD) HER2); 15.9 ± 5.3% on EGFR (1 μM, read-out: Inhibition (%) (Mean ± SD) EGFR). The “effect on activity of Chk2 (in words)” value on Chk2 was “clearly inhibits; also recorded: strongly inhibits”. For the same compound, the “effect on c-met (in words)” value on c-Met is on record as “not apparent effect”. In addition, on HER2, the “effect on HER2 (in words)” value is “not apparent effect”. For the same compound, the “effect on EGFR (in words)” value on EGFR was “not apparent effect”. The “effect on cdc2 phosphorylation induced by topoisomerase I (in words)” value in the series on cdc2 phosphorylation was “eliminates; also recorded: reduces”. The “sensitizing effects on the treatment effects of ADR and 5-fu (in words)” value (in the series with human colon cancer HT-29 [4]; in series [5]) was “significant sensitizing effects” in each case. Further, the “sensitizing effect on gemcitabine” value with HT-29 Cell line (cell cultures, gemcitabine) is reported as “more than 20 times”. Further, the “sensitizing effects on cytotoxic antitumor drugs at the cellular level (in words)” value with HT-29 Cell line (gemcitabine) was “strong sensitizing effects”; in the series on HT-29 Cell line (gemcitabine, listed as XC-608), “effective in sensitizing”.

In the case of `O=C1[O][Pt]2([NH][C@@H]3CCCC[C@H]3[NH]2)[O]C1=O` [oxaliplatin], the IC50 with HT-29 Cell line (setting [7]) was determined as 2500 nM; with HT-29 Cell line (setting [8]), 1100 nM; with HT-29 Cell line (setting [9]) it was 1300 nM; in the series with HT-29 Cell line (setting [10]) it was 1600 nM.
